These results are taken from patent US20130071854A1, “METHODS FOR THE IDENTIFICATION AND CHARACTERIZATION OF HDAC INTERACTING COMPOUNDS” (priority 2009, published 2013).

Read-outs that look alike come from different tables or passages of the source.

The target of one assay is T1, HDAC2 (Homo sapiens, UniProt Q92769).
T1 construct: used to probe endogenous HDACs in K562 whole cell extracts; endogenous in cells
Nature of the assay: Chemoproteomic binding profiling, K562 cell extract, SAHA/ITF2357 probe matrix (Kd app). The following applies: protein HDAC2; class I HDAC.

The target in another assay is HDAC3-NCoR complex (Homo sapiens, UniProt O15379). Described as above.
Sequence of HDAC3-NCoR complex (O15379 whole entry, one chain of several): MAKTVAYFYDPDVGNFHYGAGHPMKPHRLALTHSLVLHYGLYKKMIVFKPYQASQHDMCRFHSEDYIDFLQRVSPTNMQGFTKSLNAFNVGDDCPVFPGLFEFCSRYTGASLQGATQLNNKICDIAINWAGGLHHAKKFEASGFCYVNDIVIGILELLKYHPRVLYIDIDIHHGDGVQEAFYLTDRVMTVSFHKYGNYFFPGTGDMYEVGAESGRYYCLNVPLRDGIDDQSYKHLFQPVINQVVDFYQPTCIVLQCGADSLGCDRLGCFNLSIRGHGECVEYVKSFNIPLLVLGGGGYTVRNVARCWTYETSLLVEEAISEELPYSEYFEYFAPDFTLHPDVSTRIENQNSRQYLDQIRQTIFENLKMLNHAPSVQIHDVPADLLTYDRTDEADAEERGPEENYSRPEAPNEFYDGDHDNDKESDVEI
The target of a further assay is T2, HDAC6 (Homo sapiens, UniProt Q9UBN7).
T2 sequence (Q9UBN7 1-1215): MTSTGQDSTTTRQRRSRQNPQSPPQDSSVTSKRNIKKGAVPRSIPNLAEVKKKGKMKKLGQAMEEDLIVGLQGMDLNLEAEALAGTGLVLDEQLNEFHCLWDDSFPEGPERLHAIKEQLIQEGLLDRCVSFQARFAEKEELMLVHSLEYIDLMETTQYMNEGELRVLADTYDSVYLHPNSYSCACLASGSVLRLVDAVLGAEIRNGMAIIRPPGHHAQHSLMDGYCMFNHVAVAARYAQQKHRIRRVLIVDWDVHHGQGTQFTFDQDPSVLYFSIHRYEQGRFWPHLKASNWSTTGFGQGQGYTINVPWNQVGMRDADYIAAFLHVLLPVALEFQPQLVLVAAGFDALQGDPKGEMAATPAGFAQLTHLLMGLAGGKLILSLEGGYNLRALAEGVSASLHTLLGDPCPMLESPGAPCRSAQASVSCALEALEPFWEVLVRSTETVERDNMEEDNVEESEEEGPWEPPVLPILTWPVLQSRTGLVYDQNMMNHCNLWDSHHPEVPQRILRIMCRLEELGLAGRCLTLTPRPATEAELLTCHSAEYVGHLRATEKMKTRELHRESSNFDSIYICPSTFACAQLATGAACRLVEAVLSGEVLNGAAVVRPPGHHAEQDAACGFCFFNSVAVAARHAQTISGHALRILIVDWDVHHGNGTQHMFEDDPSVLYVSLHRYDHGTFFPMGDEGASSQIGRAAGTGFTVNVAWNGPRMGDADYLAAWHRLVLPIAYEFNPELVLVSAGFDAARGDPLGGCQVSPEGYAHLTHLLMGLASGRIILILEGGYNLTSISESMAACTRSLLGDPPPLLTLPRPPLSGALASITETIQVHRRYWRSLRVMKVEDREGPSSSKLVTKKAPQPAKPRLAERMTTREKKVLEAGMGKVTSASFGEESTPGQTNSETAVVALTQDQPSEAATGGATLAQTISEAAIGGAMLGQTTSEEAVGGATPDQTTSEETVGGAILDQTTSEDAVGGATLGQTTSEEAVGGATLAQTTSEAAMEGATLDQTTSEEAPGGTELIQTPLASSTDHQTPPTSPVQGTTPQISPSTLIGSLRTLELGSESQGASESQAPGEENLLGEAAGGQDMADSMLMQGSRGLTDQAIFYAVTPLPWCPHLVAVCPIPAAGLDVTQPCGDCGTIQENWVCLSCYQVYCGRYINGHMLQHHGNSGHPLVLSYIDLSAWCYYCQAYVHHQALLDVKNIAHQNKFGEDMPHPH
Nature of the assay: Compound screening, competition binding with SAHA-beads, antibody dot-blot arrays, Jurkat and Ramos whole cell extract. Also on record: endogenous in cells; Jurkat/Ramos whole cell extract. The source says: To enable the discovery of novel selective HDACi we developed a high throughput variation of the chemoproteomics protocol in which MS/MS detection is replaced with multiplexed fluorescent antibody detection on “dot blot” type arrays. The method was applied to the screening of a focused compound library in whole cell extract of Jurkat and Ramos cells for inhibitors of HDAC1, 2, 3 and 6. Several hits were obtained with a few compounds displaying a notable degree of selectivity (FIG. 35a). […] The cellular potency for tubulin deacetylation correlated with the potency for one of the drugs' anti-inflammatory effects, the secretion of IFNα in peripheral blood mononuclear cells (FIG. 35d).
The compounds for screening was selected either for their potential to be Zinc chelators or based on a similarity search of the compound collections from Asinex Corp. (Winston-Salem, N.C., USA) and Enamine (Mammouth_Jct., NJ, USA), using a training set of 140 known HDAC inhibitors. Competition binding assays using SAHA-beads were performed essentially as described above but adapted to a 96-well format. 1 mg of cell lysate and 5 μl of beads were used per well. Compounds from the screening library including reference compounds as standards were added at 20 μM and 100 μM final concentration from 50×DMSO stocks. Each plate contained 8 positive (TSA 50 μM) and eight negative controls (2% DMSO). […]

The test system of the next assay is IFNα secretion. Nature of the assay: IFNα secretion assay in peripheral blood mononuclear cells stimulated with ODN2216. Particulars: Homo sapiens, PBMC, read-out: EC50 inhibition of secretion of IFNα.
The target in a further assay is T3, ISOC2 (Homo sapiens, UniProt Q96AB3).
T3 construct: endogenous in cells
T3 sequence (Q96AB3 whole entry): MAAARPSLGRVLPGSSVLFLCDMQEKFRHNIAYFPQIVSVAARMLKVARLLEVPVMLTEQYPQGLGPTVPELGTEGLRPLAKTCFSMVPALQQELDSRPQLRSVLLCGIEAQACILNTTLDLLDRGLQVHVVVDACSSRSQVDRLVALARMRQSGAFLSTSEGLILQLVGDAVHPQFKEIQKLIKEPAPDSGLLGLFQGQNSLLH
Nature of the assay: Competition binding assay in cell lysate, affinity matrix, MS.

A further assay addresses T4, APOBEC3C (Homo sapiens, UniProt Q9NRW3).
T4 construct: endogenous in cells
Described as above.

A further assay has as its target T5, NOSIP (Homo sapiens, UniProt Q9Y314).
T5 construct: endogenous in cells
The description is as above.

A further assay deals with T6, WDR5 (Homo sapiens, UniProt P61964).
T6 construct: endogenous in cells
The assay is described as above.

The next assay deals with TRERF1. It is filed as binding, human. The following applies: protein TRERF1; ELSA (ELM-SANT) domain proteins; read-out: Kd^app TRERF1.
A further assay deals with GATAD2A. Nature of the assay: Competition binding assay in cell lysate, affinity matrix, MS (Mi-2/NuRD interactor). Particulars: K-562 cell lysate.
Another assay has as its system recombinant HDACs 1-11. Nature of the assay: Binding of probe matrix to recombinant HDACs purified from Sf9 cells, competition by free SAHA. Particulars: recombinant HDACs 1-11 purified from Sf9 cells.
In the next assay the test system is SIN3A. Particulars: K-562 cell lysate.
A further assay has as its system Sin3 complex. Nature of the assay: Chemoproteomic binding profiling, K562 cell extract, SAHA/ITF2357 probe matrix (Kd app). Also on record: species or system human.
The mark [1] stands for this setting: protein GPS2, read-out: Kd^app GPS2.
The mark [2] stands for this setting: protein NCOR1, read-out: Kd^app NCOR1.
Setting [3] is: protein NCOR2, read-out: Kd^app NCOR2.
Setting [4] is: protein TBL1X, read-out: Kd^app TBL1X.
[5] abbreviates: protein TBL1XR1, read-out: Kd^app TBL1XR1.

T1 sequence (Q92769 whole entry): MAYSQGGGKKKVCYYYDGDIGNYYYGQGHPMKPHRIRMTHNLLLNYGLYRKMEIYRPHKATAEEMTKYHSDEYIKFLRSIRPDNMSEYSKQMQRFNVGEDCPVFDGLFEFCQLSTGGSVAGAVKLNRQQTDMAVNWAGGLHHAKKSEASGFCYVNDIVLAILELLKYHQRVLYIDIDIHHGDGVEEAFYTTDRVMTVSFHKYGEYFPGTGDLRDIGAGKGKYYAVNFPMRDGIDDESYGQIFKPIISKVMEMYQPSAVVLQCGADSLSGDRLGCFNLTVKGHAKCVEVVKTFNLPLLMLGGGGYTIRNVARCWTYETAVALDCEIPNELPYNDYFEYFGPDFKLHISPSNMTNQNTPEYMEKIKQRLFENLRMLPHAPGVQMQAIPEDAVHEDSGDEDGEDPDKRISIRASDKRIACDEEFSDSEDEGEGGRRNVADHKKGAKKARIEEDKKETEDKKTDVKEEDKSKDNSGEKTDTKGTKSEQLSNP
T4 sequence (Q9NRW3 whole entry): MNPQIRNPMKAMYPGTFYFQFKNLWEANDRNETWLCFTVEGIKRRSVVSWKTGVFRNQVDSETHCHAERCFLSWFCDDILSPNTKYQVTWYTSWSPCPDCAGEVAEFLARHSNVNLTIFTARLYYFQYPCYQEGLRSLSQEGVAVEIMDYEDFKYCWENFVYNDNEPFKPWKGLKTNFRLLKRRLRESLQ
T5 sequence (Q9Y314 whole entry): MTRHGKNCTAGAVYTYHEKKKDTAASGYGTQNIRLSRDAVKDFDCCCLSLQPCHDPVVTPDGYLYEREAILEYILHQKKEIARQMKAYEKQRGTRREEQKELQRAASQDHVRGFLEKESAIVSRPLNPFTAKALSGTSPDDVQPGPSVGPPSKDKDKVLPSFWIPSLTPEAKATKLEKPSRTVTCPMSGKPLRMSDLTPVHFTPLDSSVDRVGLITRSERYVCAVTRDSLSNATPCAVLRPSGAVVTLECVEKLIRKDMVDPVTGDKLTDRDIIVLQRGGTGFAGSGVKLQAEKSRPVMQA

Consider `CCCCOc1ccc(CC(=O)NO)cc1` [bufexamac], for which the Kd was above 59.7 µM on HDAC2; 599 µM on HDAC3-NCoR complex (setting [1]); above 59.7 µM at HDAC3-NCoR complex (setting [2]); 418 µM on HDAC3-NCoR complex (setting [3]); 542 µM at HDAC3-NCoR complex (setting [4]); 530 µM on HDAC3-NCoR complex (setting [5]). Besides, the “screen result for HDAC6 (in words)” value at HDAC6 was “preferentially affect HDAC6”. The EC50 in the assay on IFNα secretion is 8.9 µM.

Turning to `Nc1ccccc1NC(=O)c1ccc(CNC(=O)OCc2cccnc2)cc1` [MS-275], the IC50 at ISOC2 is at least 300 µM; at APOBEC3C, at least 300 µM; at NOSIP, at least 300 µM; at WDR5, at least 300 µM; in the assay on GATAD2A, 300 µM. Also, the Kd at TRERF1 was above 300 µM.

Regarding `O=C(CCCCCCC(=O)Nc1ccccc1)NO` [SAHA, suberoylanilide hydroxamic acid], the “competition of capture of recombinant HDACs by the probe matrix (in words)” value with recombinant HDACs 1-11 is on record as “only affected at a high excess of free SAHA”. In addition, in the assay on SIN3A, the IC50 is 570 nM.

Regarding `Nc1ccccc1NC(=O)CCCCCCC(=O)Nc1ccccc1` [BML-210], the Kd on HDAC2 is 35 µM; in the assay on Sin3 complex (protein SAP30, read-out: Kd^app SAP30), above 85 µM; in the assay with Sin3 complex (protein SIN3A, read-out: Kd^app SIN3A), above 85 µM; with Sin3 complex (protein SIN3B, read-out: Kd^app SIN3B), above 85 µM; at HDAC3-NCoR complex (setting [1]) it was 4 µM; at HDAC3-NCoR complex (setting [2]), 7 µM. Moreover, the Kd worked out at 15 µM at HDAC3-NCoR complex (setting [3]), 4 µM at HDAC3-NCoR complex (setting [4]) and 4 µM on HDAC3-NCoR complex (setting [5]).

Usually EC50 stands for the concentration that produces a half-maximal response. For orientation: IC50 means the point on the concentration scale where inhibition reaches its midpoint.
